This test addresses T1, epithelial Na+ channel (mENaC; α-, β- and γ-mouse ENaC subunits) (Mus musculus, UniProt Q61180+Q9WU38+Q9WU39).
T1 construct: gene Scnn1a; α-, β- and γ-mouse ENaC subunits genetically linked to NH2-terminal eCFP, expressed in CHO cells; with β- and γ-ENaC subunits (Scnn1b, Scnn1g)
T1 sequence (Q61180 1-699): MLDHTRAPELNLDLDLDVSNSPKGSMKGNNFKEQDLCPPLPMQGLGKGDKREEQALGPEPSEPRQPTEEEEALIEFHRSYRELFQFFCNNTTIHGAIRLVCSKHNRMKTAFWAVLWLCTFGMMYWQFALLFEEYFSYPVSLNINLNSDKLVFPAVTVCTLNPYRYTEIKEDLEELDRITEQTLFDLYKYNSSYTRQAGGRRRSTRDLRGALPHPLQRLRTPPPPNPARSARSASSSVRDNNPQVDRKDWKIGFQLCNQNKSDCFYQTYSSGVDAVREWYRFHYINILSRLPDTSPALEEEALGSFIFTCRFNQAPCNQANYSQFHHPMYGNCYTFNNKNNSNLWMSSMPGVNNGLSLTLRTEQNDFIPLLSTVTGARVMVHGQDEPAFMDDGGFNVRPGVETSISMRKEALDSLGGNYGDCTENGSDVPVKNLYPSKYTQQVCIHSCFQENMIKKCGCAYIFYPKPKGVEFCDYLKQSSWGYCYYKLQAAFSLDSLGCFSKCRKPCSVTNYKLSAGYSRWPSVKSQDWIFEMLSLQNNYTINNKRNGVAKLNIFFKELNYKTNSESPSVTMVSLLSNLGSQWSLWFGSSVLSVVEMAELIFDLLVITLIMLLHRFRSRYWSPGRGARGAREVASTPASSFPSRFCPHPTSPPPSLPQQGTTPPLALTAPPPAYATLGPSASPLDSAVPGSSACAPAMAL
T1 sequence (Q9WU38 1-638): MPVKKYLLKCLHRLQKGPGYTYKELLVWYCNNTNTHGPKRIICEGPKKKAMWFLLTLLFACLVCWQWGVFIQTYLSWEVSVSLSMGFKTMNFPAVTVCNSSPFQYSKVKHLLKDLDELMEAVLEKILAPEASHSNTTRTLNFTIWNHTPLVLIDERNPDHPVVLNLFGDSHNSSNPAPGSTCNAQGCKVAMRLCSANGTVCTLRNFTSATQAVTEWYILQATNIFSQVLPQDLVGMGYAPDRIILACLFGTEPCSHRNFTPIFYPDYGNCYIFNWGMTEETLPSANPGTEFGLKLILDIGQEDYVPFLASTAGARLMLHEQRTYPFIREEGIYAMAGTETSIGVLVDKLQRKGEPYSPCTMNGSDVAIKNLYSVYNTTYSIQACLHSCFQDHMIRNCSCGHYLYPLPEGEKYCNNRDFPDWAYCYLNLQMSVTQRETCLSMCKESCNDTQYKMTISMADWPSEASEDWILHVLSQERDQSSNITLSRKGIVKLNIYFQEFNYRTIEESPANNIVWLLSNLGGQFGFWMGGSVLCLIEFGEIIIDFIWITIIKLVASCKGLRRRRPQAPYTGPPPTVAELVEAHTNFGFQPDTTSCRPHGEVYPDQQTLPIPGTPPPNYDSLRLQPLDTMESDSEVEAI
T1 sequence (Q9WU39 1-655): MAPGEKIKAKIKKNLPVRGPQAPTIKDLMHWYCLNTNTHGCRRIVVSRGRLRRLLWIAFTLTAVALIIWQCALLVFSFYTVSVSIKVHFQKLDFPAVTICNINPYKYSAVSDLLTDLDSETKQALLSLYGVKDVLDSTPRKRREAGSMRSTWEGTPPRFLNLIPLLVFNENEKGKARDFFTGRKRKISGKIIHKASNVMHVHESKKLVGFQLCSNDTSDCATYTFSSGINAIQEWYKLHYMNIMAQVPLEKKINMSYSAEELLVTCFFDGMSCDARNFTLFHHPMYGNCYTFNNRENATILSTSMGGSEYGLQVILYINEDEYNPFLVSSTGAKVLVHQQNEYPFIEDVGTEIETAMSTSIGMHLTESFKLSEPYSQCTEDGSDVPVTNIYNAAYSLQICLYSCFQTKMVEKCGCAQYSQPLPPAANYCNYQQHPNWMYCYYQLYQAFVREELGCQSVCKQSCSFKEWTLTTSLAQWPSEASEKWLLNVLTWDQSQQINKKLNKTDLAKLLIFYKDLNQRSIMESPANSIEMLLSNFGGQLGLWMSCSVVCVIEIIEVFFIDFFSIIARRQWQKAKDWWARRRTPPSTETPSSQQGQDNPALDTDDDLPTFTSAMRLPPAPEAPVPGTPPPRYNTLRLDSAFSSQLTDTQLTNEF
Nature of the test: whole-cell patch clamp dose-response and competition with amiloride in CHO cells (partial inhibitor, Emax […]); direct action inferred, secondary effects not excluded. The format is cell-based.

SMILES strings stand for the structures.

What is called IC50 is the concentration needed to halve the response being measured. The low end stands for greater potency, the high end for weaker potency. `[NH2][Pt]([NH2])([Cl])[Cl]` [CDDP, cis-diamminedichloroplatinum (II)] registered a half-inhibitory concentration (IC50) of 1000 ± 180 nM.

The values above are taken from publication PMC7464492, “Cisplatin Decreases ENaC Activity Contributing to Renal Salt Wasting Syndrome” (Cancers, 2020).
